The text below walks through data of patent publication US10858364B2, “Imidazopyrazine inhibitors of Bruton's tyrosine kinase” (Acerta Pharma B.V., priority 2016, dated 2020).

For one assay, the target named is BTK (Homo sapiens (Human), UniProt Q06187). As to the kind of experiment: BTK enzyme activity, IMAP assay. In kind it is biochemical. The following applies: 60 min pre-incubation, 5 μM ATP. How it is done: BTK enzyme activity is measured using the IMAP (immobilized metal ion affinity-based fluorescence polarization) assay as outlined below. BTK enzyme (His-BTK (Millipore catalog #14-552)), is diluted to 0.4 U/mL in KR buffer (10 mM Tris-HCl, 10 mM MgCl2, 0.01% Tween-20, 0.05% NaN3, 1 mM DTT, 2 mM MnCl2, pH 7.2). Serial dilutions log 10 from 2 mM to 63.2 nM of test compounds are made in 100% DMSO. The dilutions in DMSO are then diluted 50-fold in KR-buffer. Final compound concentration range in the assay ranged from 10 μM to 0.316 nM. The assay is performed as follows: 5 μL/well of test compound in KR buffer (final DMSO concentration in the assay is […]) is mixed with 5 µl/well of 0.4 U/mL BTK enzyme (final concentration in the assay is 0.1 U/mL). […] After 60 min incubation at room temperature in the dark the FP signal is read. Fluorescence at 535 nm is measured using parallel and perpendicular filters to determine differences in rotation due to binding of the phosphorylated substrate peptide to the beads. Values are calculated as percentage of the difference in readout (AmPi) of the controls with and without ATP. IC50 values are determined by curve fitting of the experimental results in Dotmatics.
Chain of BTK (Q06187 whole entry): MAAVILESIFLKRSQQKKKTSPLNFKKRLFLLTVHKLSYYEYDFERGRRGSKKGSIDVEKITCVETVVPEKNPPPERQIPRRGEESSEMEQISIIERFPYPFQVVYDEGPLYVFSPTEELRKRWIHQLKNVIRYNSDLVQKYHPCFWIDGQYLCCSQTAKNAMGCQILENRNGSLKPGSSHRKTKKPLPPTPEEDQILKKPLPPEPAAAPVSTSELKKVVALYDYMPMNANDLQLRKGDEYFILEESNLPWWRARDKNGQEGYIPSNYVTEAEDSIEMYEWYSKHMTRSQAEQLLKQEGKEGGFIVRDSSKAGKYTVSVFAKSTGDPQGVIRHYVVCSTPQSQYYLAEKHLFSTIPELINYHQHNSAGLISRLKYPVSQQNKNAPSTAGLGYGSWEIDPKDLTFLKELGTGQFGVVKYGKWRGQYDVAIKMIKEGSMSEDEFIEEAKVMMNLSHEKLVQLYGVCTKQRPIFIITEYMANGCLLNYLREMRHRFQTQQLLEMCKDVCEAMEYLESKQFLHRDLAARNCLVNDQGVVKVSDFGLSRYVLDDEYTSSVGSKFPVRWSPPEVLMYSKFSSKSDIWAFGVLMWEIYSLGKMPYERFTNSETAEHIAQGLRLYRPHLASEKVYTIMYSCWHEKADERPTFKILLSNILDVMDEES

The target of another assay is TXK (Homo sapiens (Human), UniProt P42681). Kind of assay: TXK Z'-LYTE kinase assay. In kind it is biochemical. The following applies: 1 h pre-incubation, Km ATP. How it is done:
BMX, TXK, EGFR, ERBB2, ERBB4, JAK3, BLK kinase activity was measured using the Z′-LYTE assay at Thermo Fisher. A 10-point dose response (final concentration in assay ranged from 10 μM to 0.5 nM in 3-fold dilution per dilution step) was generated with 1 h incubation of the test compound with the kinase prior to initiation of the kinase reaction by the addition of ATP. ATP concentration in the assay was Km ATP for the different kinases. IC50 values are determined by curve fitting of the experimental results at Thermo Fisher.

A further assay deals with ITK (Homo sapiens (Human), UniProt Q08881). As to the kind of experiment: ITK enzyme activity, IMAP assay. In kind it is biochemical. To be noted: 60 min pre-incubation, 5 μM ATP. As to the method: ITK enzyme activity is measured using the IMAP (immobilized metal ion affinity-based fluorescence polarization) assay as outlined below.
Chain of ITK (Q08881 whole entry): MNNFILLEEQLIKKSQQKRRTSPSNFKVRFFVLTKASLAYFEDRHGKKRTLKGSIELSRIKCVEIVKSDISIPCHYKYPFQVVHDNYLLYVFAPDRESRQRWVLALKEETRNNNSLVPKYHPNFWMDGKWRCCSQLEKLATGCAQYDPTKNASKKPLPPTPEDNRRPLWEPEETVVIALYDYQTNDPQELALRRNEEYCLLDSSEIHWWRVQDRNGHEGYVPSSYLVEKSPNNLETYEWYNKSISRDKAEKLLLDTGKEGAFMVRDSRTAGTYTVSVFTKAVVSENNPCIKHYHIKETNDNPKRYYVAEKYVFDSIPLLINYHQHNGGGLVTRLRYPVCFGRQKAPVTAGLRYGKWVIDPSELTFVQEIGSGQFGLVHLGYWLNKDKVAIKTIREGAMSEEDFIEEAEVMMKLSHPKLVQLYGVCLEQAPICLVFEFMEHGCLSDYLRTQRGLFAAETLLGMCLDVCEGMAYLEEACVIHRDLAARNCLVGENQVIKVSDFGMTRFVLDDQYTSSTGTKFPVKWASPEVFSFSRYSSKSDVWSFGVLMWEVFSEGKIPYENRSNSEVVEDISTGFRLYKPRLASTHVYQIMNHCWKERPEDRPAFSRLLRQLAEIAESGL
ITK enzyme (Millipore #14-660M) is diluted to 0.2 U/mL in KR buffer (10 mM Tris-HCl, 10 mM MgCl2, 0.01% Tween-20, 0.1% NaN3, 1 mM DTT, 2 mM MnCl2, pH 7.5)
Serial dilutions log 10 from 2 mM to 63.2 nM of test compounds are made in 100% DMSO. The dilutions in DMSO are then diluted 50-fold in KR-buffer. Final compound concentration range in the assay ranged from 10 μM to 0.316 nM.
The assay is performed as follows: 5 μL/well of test compound in KR buffer (final DMSO concentration in the assay is 1%) is mixed with 5 μL/well of 0.2 U/mL ITK enzyme (final concentration in the assay is 0.05 U/mL (8.4 nM)). Test compounds and ITK enzyme are pre-incubated 60 minutes at room temperature, before adding 5 μL/well of 200 nM Fluorescin labeled substrate peptide (Blk/Lyntide substrate # R8124, Molecular Devices) in KR-buffer. Final peptide substrate concentration in assay is 50 nM. The kinase assay is started by adding 5 μL/well of 20 μM ATP in KR-buffer (final ATP concentration is 5 μM ATP, Km ATP in ITK IMAP assay). […] IC50 values are determined by curve fitting of the experimental results in Dotmatics.

In the next assay the test system is anti-IgD-induced CD69. As to the kind of experiment: Human whole blood anti-IgD-induced CD69 assay. In kind it is cell-based. To be noted: B-cell, CD19+ B cells, 18h anti-IgD, read-out: hWB: anti-IgD-induced CD69 EC50. How it is done: WB assay: Forty-five μL blood was diluted 1:1 in RPMI+1% FBS and incubated with test compound, as described above. Blood cells were stimulated with 10 μg/mL mouse anti-human anti-IgD antibody (BD Biosciences, final concentration in assay 10 μg/mL) and incubated for 18h. Cells were stained with CD69-FITC, CD86-PE, and CD19-BV421 (BD Biosciences) for 15 minutes at room temperature, followed by RBCs lysis with FACS Lysing Solution (BD Biosciences). Cells were washed 3 times with 1 mL/well PBS+0.5% BSA, followed by flow cytometric analyses. Median fluorescence intensity values for CD69 were obtained from the CD19+B lymphocyte gate using FCSExpress analyses software (De Novo Software). EC50 values were determined by curve fitting of the experimental results using Dotmatics.
The potency of BTK inhibitors in primary B cells can be assessed in assays that evaluate functional changes after BCR-activation in the presence of inhibitor. Inhibition of specific phosphorylated epitopes on signaling proteins and more distal measures of BCR activation such as increased expression of CD86 (B7-2) and CD69 on the cell surface can be measured by flow cytometry (see Report R2013003A). In this study, effects of M27 on CD69 expression were assessed.

Chain of TXK (P42681 whole entry): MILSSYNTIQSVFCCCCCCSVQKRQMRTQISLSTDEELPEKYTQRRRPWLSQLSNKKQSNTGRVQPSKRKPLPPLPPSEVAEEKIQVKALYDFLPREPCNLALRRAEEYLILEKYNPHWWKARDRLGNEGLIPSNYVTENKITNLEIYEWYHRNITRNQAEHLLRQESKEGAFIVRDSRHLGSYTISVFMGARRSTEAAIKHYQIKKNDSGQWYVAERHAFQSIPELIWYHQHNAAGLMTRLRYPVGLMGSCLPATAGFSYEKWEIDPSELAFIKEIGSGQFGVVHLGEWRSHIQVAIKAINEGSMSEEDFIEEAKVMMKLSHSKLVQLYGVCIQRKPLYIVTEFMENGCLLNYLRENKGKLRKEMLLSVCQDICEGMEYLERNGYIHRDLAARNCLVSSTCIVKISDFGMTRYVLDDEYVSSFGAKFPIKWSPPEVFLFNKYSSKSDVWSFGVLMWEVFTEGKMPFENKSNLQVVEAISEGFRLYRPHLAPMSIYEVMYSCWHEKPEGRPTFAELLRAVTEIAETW

Regarding `CC#CC(=O)NCCCC(=O)c1nc(-c2ccc(C(=O)Nc3ccccn3)cc2)c2c(N)nccn12` [Formula (I), 4-(8-amino-3-(4-(but-2-ynamido)butanoyl)imidazo[1,5-a]pyrazin-1-yl)-N-(pyridin-2-yl)benzamide], the IC50 (as a rule, the point on the concentration scale where inhibition reaches its midpoint) was 0.005 ± 0.001 µM at BTK, 0.567 ± 0.174 µM against TXK and over 10 µM against ITK. The EC50 (commonly the concentration that produces a half-maximal response) in the assay with anti-IgD-induced CD69 came out at 0.064 ± 0.006 µM.

Regarding `CC#CC(=O)NCCCC(=O)c1nc(-c2ccc(C(=O)Nc3ccccn3)c(OC)c2)c2c(N)nccn12` [Formula (II), 4-(8-amino-3-(4-(but-2-ynamido)butanoyl)imidazo[1,5-a]pyrazin-1-yl)-2-methoxy-N-(pyridin-2-yl)benzamide], the IC50 is 0.0093 µM at BTK, 0.059 µM at TXK and over 10 µM against ITK. Further, in the assay on anti-IgD-induced CD69, the EC50 is 0.137 ± 0.036 µM.
